This note sets out measurements from PubChem BioAssay AID248 (DTP/NCI, 2004).

In this assay the test system is L1210 leukemia ip in BDF1 mice, survival T/C. Nature of the assay: NCI In Vivo Anticancer Drug Screen. Data for tumor model L1210 Leukemia (intraperitoneal) in B6D2F1 (BDF1) mice. As to conditions: endpoint: mean survival time, higher = longer survival. The method in brief:
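Mice bearing the transplanted tumor received compound or vehicle. Survival of the treated group was divided by that of the vehicle-treated control group to give the ratio.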

The mark [1] stands for this setting: dose: 50.0 mg/kg/injection, schedule: Q01DX001 (ip), vehicle: carboxymethylcellulose (CMC).
The mark [2] stands for this setting: dose: 100.0 mg/kg/injection, schedule: Q01DX009 (ip), vehicle: Klucel (hydroxypropylcellulose) (HPC).
The mark [3] stands for this setting: dose: 100.0 mg/kg/injection, schedule: Q04DX003 (ip), vehicle: Klucel (hydroxypropylcellulose) (HPC).
Setting [4] is: dose: 200.0 mg/kg/injection, schedule: Q04DX003 (ip), vehicle: Klucel (hydroxypropylcellulose) (HPC).
[5] abbreviates: dose: 400.0 mg/kg/injection, schedule: Q04DX003 (ip), vehicle: Klucel (hydroxypropylcellulose) (HPC).
Setting [6] is: dose: 200.0 mg/kg/injection, schedule: Q01DX009 (ip), vehicle: Klucel (hydroxypropylcellulose) (HPC).
Setting [7] is: dose: 400.0 mg/kg/injection, schedule: Q01DX009 (ip), vehicle: Klucel (hydroxypropylcellulose) (HPC).

Molecules are shown by their SMILES. Where “and” joins values, the source holds several entries; their conditions need not be identical. Equal entries are not always repeated. Inconclusive results and toxic doses are left out.

Regarding `Clc1ncnc2c1ncn2C1CCCCO1` (stereo not given), the T/C runs as follows: (dose: 31.0 mg/kg/injection, schedule: Q01DX Z (ip), vehicle: other) 101 % of control; (dose: 62.0 mg/kg/injection, schedule: Q01DX Z (ip), vehicle: other) 103 % of control; (dose: 100.0 mg/kg/injection, schedule: Q01DX001 (ip), vehicle: saline) 91 % of control; (dose: 100.0 mg/kg/injection, schedule: Q01DX009 (ip), vehicle: saline sonified) 110 % of control; (dose: 175.0 mg/kg/injection, schedule: Q01DX015 (ip), vehicle: saline) 113 % of control; (dose: 200.0 mg/kg/injection, schedule: Q01DX001 (ip), vehicle: saline) 98 % of control. In addition, the T/C (dose: 200.0 mg/kg/injection, schedule: Q01DX009 (ip), vehicle: saline sonified) is 118 % of control; the T/C (dose: 265.0 mg/kg/injection, schedule: Q01DX015 (ip), vehicle: saline) was 123 % of control; the T/C (dose: 400.0 mg/kg/injection, schedule: Q01DX001 (ip), vehicle: saline) was 102 % of control; the T/C (dose: 400.0 mg/kg/injection, schedule: Q01DX009 (ip), vehicle: saline sonified) is 150 % of control; the T/C (dose: 400.0 mg/kg/injection, schedule: Q01DX015 (ip), vehicle: saline) is 123 % of control.

`CCOC(=O)c1ccc(N(CCC(O)CN=[N+]=[N-])S(=O)(=O)c2ccc(C)cc2)cc1` (stereo not given): the T/C is 96 % of control under setting [1]; 100 % of control (dose: 100.0 mg/kg/injection, schedule: Q01DX001 (ip), vehicle: carboxymethylcellulose (CMC)); 96 % of control (dose: 200.0 mg/kg/injection, schedule: Q01DX001 (ip), vehicle: carboxymethylcellulose (CMC)); 100 % of control (dose: 400.0 mg/kg/injection, schedule: Q01DX001 (ip), vehicle: carboxymethylcellulose (CMC)).

`CCC(=O)C1(c2ccccc2)CCNCC1`: the T/C (dose: 25.0 mg/kg/injection, schedule: Q01DX009 (ip), vehicle: Klucel (hydroxypropylcellulose) (HPC)) was 102 % of control; the T/C (dose: 50.0 mg/kg/injection, schedule: Q01DX009 (ip), vehicle: Klucel (hydroxypropylcellulose) (HPC)) was 106 % of control; the T/C under setting [2] is 98 % of control and 118 % of control; the T/C (dose: 200.0 mg/kg/injection, schedule: Q04DX002 (ip), vehicle: Klucel (hydroxypropylcellulose) (HPC)) was 106 % of control.

Regarding `N=C(N)N=Nc1cc(O)c(NN=C(N)N)cc1O`, the T/C is 95 % of control (dose: 7.5 mg/kg/injection, schedule: Q01DX Z (oral), vehicle: saline); 98 % of control (dose: 15.0 mg/kg/injection, schedule: Q01DX Z (ip), vehicle: saline); 96 % of control (dose: 15.0 mg/kg/injection, schedule: Q01DX Z (oral), vehicle: saline); 98 % of control (dose: 30.0 mg/kg/injection, schedule: Q01DX Z (oral), vehicle: saline).

For `CC1C(C)(C)P(=O)(n2nnc3ccccc32)C1(C)C` (stereo not given), the T/C is 105 % of control (dose: 100.0 mg/kg/injection, schedule: Q04DX003 (ip), vehicle: saline); 97 % of control (dose: 200.0 mg/kg/injection, schedule: Q04DX003 (ip), vehicle: saline); 94 % of control (dose: 400.0 mg/kg/injection, schedule: Q04DX003 (ip), vehicle: saline).

As to `Cc1ccc(C(=O)c2ccc3c4c(cccc24)CC3)cc1`, the T/C under setting [3] is 112 % of control, the T/C under setting [4] was 88 % of control and the T/C under setting [5] was 100 % of control.

Regarding `Cc1cccc(N=Cc2cccc([N+](=O)[O-])c2)c1`, the T/C reads like this: (dose: 50.0 mg/kg/injection, schedule: Q04DX003 (ip), vehicle: Klucel (hydroxypropylcellulose) (HPC)) 98 % of control; (dose: 100.0 mg/kg/injection, schedule: Q01DX001 (ip), vehicle: Klucel (hydroxypropylcellulose) (HPC)) 100 % of control; under setting [3], 98 % of control; (dose: 200.0 mg/kg/injection, schedule: Q01DX001 (ip), vehicle: Klucel (hydroxypropylcellulose) (HPC)) 94 % of control; under setting [4], 98 % of control; (dose: 400.0 mg/kg/injection, schedule: Q01DX001 (ip), vehicle: Klucel (hydroxypropylcellulose) (HPC)) 92 % of control.

Consider `CCN(CC)C(=O)C(Br)C(Br)C(=O)N(CC)CC` (stereo not given), for which the T/C is 100 % of control (dose: 100.0 mg/kg/injection, schedule: Q04DX003 (ip), vehicle: acetone); 100 % of control (dose: 200.0 mg/kg/injection, schedule: Q04DX003 (ip), vehicle: acetone); 92 % of control (dose: 400.0 mg/kg/injection, schedule: Q04DX003 (ip), vehicle: acetone).

In the case of `Cc1cccc(C)c1NC(=O)Oc1ccc(C2CCCCC2)cc1`, the T/C runs as follows: under setting [2], 101 % of control; under setting [3], 91 % of control; under setting [6], 97 % of control; under setting [4], 93 % of control; under setting [7], 94 % of control; under setting [5], 88 % of control.

On to `CS(=O)(=O)c1cc(N2CC2)ncn1`, for which the T/C is 96 % of control (dose: 4.0 mg/kg/injection, schedule: Q01DX015 (ip), vehicle: carboxymethylcellulose (CMC)); 102 % of control (dose: 8.0 mg/kg/injection, schedule: Q01DX015 (ip), vehicle: carboxymethylcellulose (CMC)); 108 % of control (dose: 16.0 mg/kg/injection, schedule: Q01DX015 (ip), vehicle: carboxymethylcellulose (CMC)); 113 % of control and 120 % of control (dose: 32.0 mg/kg/injection, schedule: Q01DX015 (ip), vehicle: carboxymethylcellulose (CMC)); 110 % of control (dose: 64.0 mg/kg/injection, schedule: Q01DX015 (ip), vehicle: carboxymethylcellulose (CMC)).

Consider `COc1ccc(CSC(=S)Nc2ccc(Cl)c(Cl)c2)cc1OC`, for which the T/C is, setting by setting: (dose: 37.5 mg/kg/injection, schedule: Q04DX003 (ip), vehicle: saline) 101 % of control; (dose: 75.0 mg/kg/injection, schedule: Q04DX003 (ip), vehicle: saline) 93 % of control; (dose: 150.0 mg/kg/injection, schedule: Q04DX003 (ip), vehicle: saline) 101 % of control.

For `O=c1[nH]c2ccccc2c(=O)n1C1CCCCC1`, the T/C by setting is: (dose: 25.0 mg/kg/injection, schedule: Q01DX009 (ip), vehicle: water) 96 % of control; (dose: 50.0 mg/kg/injection, schedule: Q01DX009 (ip), vehicle: water) 94 % of control; (dose: 100.0 mg/kg/injection, schedule: Q01DX009 (ip), vehicle: water) 103 % of control; (dose: 200.0 mg/kg/injection, schedule: Q01DX009 (ip), vehicle: water) 98 % of control; (dose: 400.0 mg/kg/injection, schedule: Q01DX009 (ip), vehicle: water) 101 % of control.

Take `CN1C2CCC1C(=O)N(Cc1ccccc1)C2=O`: the T/C reads like this: (dose: 100.0 mg/kg/injection, schedule: Q04DX003 (ip), vehicle: saline with Tween-80) 102 % of control; (dose: 200.0 mg/kg/injection, schedule: Q04DX003 (ip), vehicle: saline with Tween-80) 93 % of control; (dose: 400.0 mg/kg/injection, schedule: Q04DX003 (ip), vehicle: saline with Tween-80) 101 % of control.

Consider `C/C=C/CC1(CC(C)C)C(=O)NC(=S)NC1=O`, for which the T/C was 102 % of control (dose: 75.0 mg/kg/injection, schedule: Q01DX001 (ip), vehicle: saline); 94 % of control (dose: 150.0 mg/kg/injection, schedule: Q01DX001 (ip), vehicle: saline); 99 % of control (dose: 300.0 mg/kg/injection, schedule: Q01DX001 (ip), vehicle: saline).

As for `O=C(O)/C=C/C(=O)c1ccccc1`, under setting [1], the T/C is 109 % of control.

As for `CCCCCCCCCCCCCCCCCCOc1ccccn1`, the T/C is, setting by setting: under setting [2], 97 % of control; under setting [3], 98 % of control; under setting [6], 96 % of control; under setting [4], 93 % of control; under setting [7], 91 % of control; under setting [5], 92 % of control.
